Assay [1] concerns MCF10A HER2 mutant cell lines. In words: MCF10A cell viability, HER2 exon 20 mutant cell lines together (average, selectivity vs HER2 WT, T-DM1 combination). It is filed as cell-based, human. Here is the method:
(§1) Briefly, 2000-3000 cells per well were plated in 384-well plates (Greiner Bio-One) in technical triplicate. Cells were treated with seven different concentrations of tyrosine kinase inhibitors or vehicle alone at a final volume of 40 μL per well. After 3 days, 11μL of Cell Titer Glo was added to each well. Plates were shaken for 15 minutes, and bioluminescence was determined using a FLUOstar OPTIMA multi-mode micro-plate reader (BMG LABTECH). Bioluminescence values were normalized to DMSO treated cells, and normalized values were plotted in GraphPad Prism using non-linear regression fit to normalized data with a variable slope.
Human Cell lines: MCF10A cells were purchased from ATCC and were cultured in DMEM/F12 media supplemented with 1% penicillin/streptomycin, 5% horse serum (sigma), 20 ng/ml EGF, […] hydrocortisone, and 10 μg/ml insulin. […] Two days after transduction, 0.5 μg/ml puromycin (Invitrogen) was added to the RPMI media. […] CW-2 cells were provided by the Riken cell line database under MTA, and were maintained in RPMI containing 10% FBS and 1% penicillin/streptomycin.

Assay [2] has as its system HER2 Y772dupYVMA NSCLC PDX. In words: HER2 Y772dupYVMA NSCLC PDX model. It is filed as in vivo, NSG mice. Here is the method:
Y772dupYVMA PDX mice were purchased from Jax Labs (Model #TM01446). Fragments from tumors expressing HER2 Y772dupYVMA were inoculated into 5- to 6-week old female NSG mice (Jax Labs #005557). Mice were measured three times per week, and when tumors reached a volume of 200-300 mm^3 mice were randomized into four treatment groups: vehicle control (0.5% Methylcellulose, 0.05% Tween-80 in dH2O), 2.5 mg/kg poziotinib, 10 mg/kg T-DM1, or combination of 2.5 mg/kg poziotinib and 10 mg/kg T-DM1. Tumor volumes and body weight were measured three times per week. Mice treated with 2.5 mg/kg poziotinib received drug orally Monday-Friday (5 days per week). Mice treated with 10 mg/kg T-DM1 received one intravenous (IV) dose of T-DM1 on the day of randomization. Mice treated with combination poziotinib and T-DM1 received one IV dose of T-DM1 and began 2.5 mg/kg poziotinib five days per week, 3 days after the dose of T-DM1. Mice received a holiday from dosing if the mouse dropped in body weight by greater than 10% or if body weight dropped below 20 grams. Progression free survival was defined as tumor doubling from best response for two consecutive measurements. Complete regression was defined as greater than 95% reduction in tumor burden, and for mice with complete regression, tumor doubling was defined greater than 75 mm^3 for more than two consecutive measurements. Experiments were completed in agreement with Good Animal Practices and with approval from MD Anderson Cancer Center Institutional Animal Care and Use Committee (Houston, TX).

Assay [3] concerns patients with HER2 mutant NSCLC. The conditions noted are these: cited from earlier work.
In assay [4] the test system is Ba/F3 cells stably expressing HER2 mutations (exons 19, 20, 21). In words: Ba/F3 HER2 mutant cell viability (Cell Titer Glo) TKI screen. It counts as cell-based. The conditions noted are these: for inhibitory activity for HER2 mutants across all three exons: exons 19, 20, 21; for inhibitory activity for HER2 mutants across all three exons / activity against cells expressing D769 variants / inhibiting cell viability in cells expressing exon 20 mutations: 72 hours; for activity against cells expressing D769 variants: HER2 D769 variants; for inhibiting cell viability in cells expressing exon 20 mutations: HER2 exon 20 mutations; for sensitivity of HER2 mutants to inhibitor: all HER2 mutants, 72 hours drug treatment. Here is the method:
Briefly, stable Ba/F3 cell lines were generated by retroviral transduction of Ba/F3 cell line for 12 hours. […] Three days after transduction, 2 μg/ml puromycin (Invitrogen) was added to the RPMI media. After 5 days of selection, cells were stained with FITC-HER2 (Biolegend) sorted by FACS. Cell lines were then grown in the absence of IL-3 for two weeks and cell viability was assessed every three days using the Cell Titer Glo assay (Progema).
as §1
In general terms: In ATP-based viability assays light output follows the ATP content of the culture.

Assay [5] has as its system patients with HER2 mutant NSCLC. The conditions noted are these: cited from earlier work. The source holds these as a separate data set.
A further assay relates to p-HER2. In words: Western blot of p-HER2 in MCF10A HER2 G776delinsVC cells. The conditions noted are these: 10 nM, 2 hours treatment. It is filed as cell-based, human. Here is the method: Western Blotting: For Western blotting, cells were washed in PBS and lysed in RIPPA lysis buffer (ThermoFisher) and protease inhibitor cocktail tablets (Roche). Protein (30-40 μg) was loaded into gels purchased from BioRad. BioRad semi-dry transfer was used and then probed with antibodies against, pHER2, HER2, pPI3K, PI3K, p-AKT, AKT, p-ERK1/2, and ERK1/2 (1:1000; Cell Signaling). Blots were probed with antibodies against vinculin or β-actin (Sigma-Aldrich) as a loading control, and exposed using ECL Western Blotting substrate (Promega).
On the technique in general: A western blot detects proteins with antibodies after separation by electrophoresis.

Assay [6] concerns CW-2 large intestine cells harboring HER2 exon 19 mutation L755S. In words: CW-2 cell viability. It counts as cell-based. The conditions noted are these: Homo sapiens, CW-2, 72 h, read-out: average IC50. Here is the method: as §1, with “Cell Viability Assay and IC50 Estimation: Cell viability was determined using the Cell Titer Glo assay (Promega) as previously described (Robichaux et al., 2018). Briefly,” for “Briefly,”, “slope. IC50 values were calculated by GraphPad Prism at 50% inhibition.” for “slope.”
Human Cell lines: MCF10A cells were purchased from ATCC and were cultured in DMEM/F12 media supplemented with 1% penicillin/streptomycin, 5% horse serum (sigma), 20 ng/ml EGF, […] hydrocortisone, and 10 μg/ml insulin. Stable cell lines were created by retroviral transduction, and retroviruses were generated by transfecting pBabe-Puro based vectors summarized in Table 1 (Addgene and Bioinnovatise) into Phoenix 293T-ampho cells (Orbigen) using Lipofectamine 2000 (Invitrogen). […]

Assay [7] concerns CW-2 colorectal cell xenograft (HER2 L755S). In words: CW-2 xenograft mouse model. The conditions noted are these: day 21, 30 mg/kg, 5 days/week. It counts as in vivo, nu/nu nude mice. Here is the method:
In vivo xenograft studies: CW-2 cell line xenografts were created by injecting 1×10^6 cells in 50% matrigel into 6 week old female nu/nu nude mice. When tumors reached 350 mm^3 mice were randomized into 4 groups: 20 mg/kg afatinib, 5 mg/kg poziotinib, 30 mg/kg neratinib, or vehicle control (0.5% Methylcellulose, 2% Tween-80 in dH2O). Tumor volumes were measured three times per week. Mice received drug Monday-Friday (5 days per week), but began dosing on Wednesday allowing for a 2 day holiday after the first 3 days of dosing.

Assay [8] has as its system patients with HER2 mutant cancers. The conditions noted are these: cited from earlier work.
Where [9] appears, read: lung cancer patients harboring HER2 exon 20 insertion mutations.

What is called pIC50 is the negative decadic logarithm of the IC50, by convention in mol/L.

pIC50: −log10 of the molar value. Like-named read-outs stand apart in the source and are kept apart here.

As for T-DM1, the “inhibition of cell viability of MCF10A HER2 mutant cell lines” value in assay [1] (agent alone) is on record as “did not inhibit cell viability”. Moreover, the “tumor growth after best response” value in assay [2] (by day 30) was “tumor growth resumed in all mice”. Moreover, in assay [2] (day 15 (best response), poziotinib 2.5 mg/kg, T-DM1 10 mg/kg single dose), the “mice with complete tumor regression” value is recorded as 2/9. Also, the “median PFS (mPFS), time to tumor doubling from best response” value in assay [2] (poziotinib 2.5 mg/kg 5 days per week, T-DM1 10 mg/kg single IV dose) is on record as 27 days. Moreover, the ORR in assay [3] (patients harboring exon 20 insertion mutations) is recorded as 54.5%. Further, in assay [3] (patients with exon 19 mutations), the partial responses entry was “did not have partial responses”.

For `CCOc1cc2ncc(C#N)c(Nc3ccc(OCc4ccccn4)c(Cl)c3)c2cc1NC(=O)/C=C/[C@H]1CCCN1C` [pyrotinib], the “selectivity index (SI, IC50 value mutant/IC50 value WT)” value in assay [1] (MCF10A HER2 mutant vs HER2 WT cell lines) was 0.063.

As to `COc1cc2ncnc(Nc3ccc(F)c(Cl)c3)c2cc1NC(=O)/C=C/CN1CCCCC1` [dacomitinib], the “inhibitory activity for HER2 mutants across all three exons” value in [4] is reported as “had inhibitory activity”. The ORR in assay [5] (HER2 mutant NSCLC) is 11.5%. Besides, the response rate in assay [5] (setting [9]) was 11.5%. In addition, the responses result in [5] (patients bearing HER2 exon 20 insertion p.Y772dupYVMA) was “no responses”.

With `CCOc1cc2ncc(C#N)c(Nc3ccc(OCc4ccccn4)c(Cl)c3)c2cc1NC(=O)/C=C/CN(C)C` [neratinib], the “IC50 values in Ba/F3 drug screening” value in assay [4] (HER2 L755S, V777L, or L869R mutations) is listed as “low IC50 values”. The “sensitivity of V842I mutation in the drug screen assays” value in [4] (HER2 V842I (exon 21)) was “not sensitive”. In addition, in assay [4], the “inhibitory activity for HER2 mutants across all three exons” value was “had inhibitory activity”. For the same molecule, the negative logarithm of the IC50 (pIC50) was 6.82 in assay [1] (Homo sapiens, MCF-10A, average over MCF10A G776del insVC, Y772dupYVMA, G778dupGSP cells, 72 hours) and 7.16 in assay [6]. Besides, the “inhibition of p-HER2” value in the assay with p-HER2 is on record as “not”. For the same molecule, the “increased tumor volume compared to vehicle control” value in assay [7] is reported as 28%. In assay [8] (SUMMIT pan-cancer study, all HER2 mutations), the “objective response rate (ORR)” value is reported as “less than 15%”. The ORR in [8] (SUMMIT, HER2 kinase domain point mutations) is 21.4%; in [8] (SUMMIT, exon 20 insertions) it was 7.1%; in assay [8] (patients with breast cancer, single agent, multiple studies), 12.5%-32%. Also, the response entry in assay [8] (SUMMIT, patients with colorectal cancer) was “did not respond”. Besides, the response rate in assay [8] (setting [9]) was 0%; in assay [8] (patients with lung cancer, single agent), 0%-4%.

As for `Cc1cc(C(=O)Nc2nc3cccc(Cl)c3n2[C@@H]2CCCCN(C(=O)/C=C/CN(C)C)C2)ccn1` [nazartinib], in assay [4], the “activity against cells expressing D769 variants” value is “did demonstrate activity” and the “inhibiting cell viability in cells expressing exon 20 mutations” value is recorded as “not effective”.

For the molecule `CNC(=O)CN1CCC(Oc2cc3c(Nc4cccc(Cl)c4F)ncnc3cc2OC)CC1` [sapatinib], the “sensitivity of HER2 mutants to inhibitor” value in assay [4] was “robust resistance”.

In the case of `CS(=O)(=O)CCNCc1ccc(-c2ccc3ncnc(Nc4ccc(OCc5cccc(F)c5)c(Cl)c4)c3c2)o1` [lapatinib], the “sensitivity of HER2 mutants to inhibitor” value in assay [4] is on record as “robust resistance”.

In the case of `C=CC(=O)Nc1cc(Nc2nccc(-c3cn(C)c4ccccc34)n2)c(OC)cc1N(C)CCN(C)C` [osimertinib], in assay [4], the “activity against cells expressing D769 variants” value is on record as “did demonstrate activity” and the “inhibiting cell viability in cells expressing exon 20 mutations” value was “not effective”.

Values taken from patent US12629375B2, “Compounds with anti-tumor activity against cancer cells bearing HER2 exon 21 insertions” (Board of Regents, The University of Texas System, priority 2019, dated 2026).
